Literature values, collected in patent publication US20030088889A1, “Enhancing biological activity of plants” (priority 2002, published 2003).

How the values were obtained:
[1] = tested on: neuronal reuptake of monoamines and amino acids
[2] = molecular target: T1, estrogen receptor (Homo sapiens, UniProt P03372)
T1 sequence (P03372 1-595): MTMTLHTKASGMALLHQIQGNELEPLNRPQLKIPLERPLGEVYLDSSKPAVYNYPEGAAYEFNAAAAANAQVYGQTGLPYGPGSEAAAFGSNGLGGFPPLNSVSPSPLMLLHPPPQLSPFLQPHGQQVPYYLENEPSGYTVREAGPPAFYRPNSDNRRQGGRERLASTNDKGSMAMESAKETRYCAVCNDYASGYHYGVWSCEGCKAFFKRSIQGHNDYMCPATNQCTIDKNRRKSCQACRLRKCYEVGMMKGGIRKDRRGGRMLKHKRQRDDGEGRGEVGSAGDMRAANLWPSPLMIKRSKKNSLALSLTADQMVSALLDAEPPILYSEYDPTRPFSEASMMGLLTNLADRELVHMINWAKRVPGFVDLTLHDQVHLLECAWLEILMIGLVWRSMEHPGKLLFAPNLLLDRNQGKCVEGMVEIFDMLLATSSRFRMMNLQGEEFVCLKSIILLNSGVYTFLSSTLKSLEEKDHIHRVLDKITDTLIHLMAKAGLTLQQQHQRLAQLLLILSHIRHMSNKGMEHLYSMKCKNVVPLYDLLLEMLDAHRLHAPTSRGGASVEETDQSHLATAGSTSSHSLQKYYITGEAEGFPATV

affinity to the estrogen receptor [2] | Molecule | inhibition of neuronal reuptake of monoamines and amino acids [1]
– | hyperforin | potently inhibit
weak affinity | O=c1cc(-c2ccc(O)c(-c3c(O)cc(O)c4c(=O)cc(-c5ccc(O)cc5)oc34)c2)oc2cc(O)cc(O)c12 [biapigenin] | –
